Consider 1 sequence from patent US20120064125A1 (priority 2009, published 2012).

Holding throughout (type): cell-based, Staphylococcus aureus
The test system of assay [1] is USA300 strain LAC biofilm. The assay can be described thus: USA300 biofilm dispersal from a glass surface (flow cell, CLSM). Particulars: AIP-I ~50 nM. Here is the method: FIGS. 1A-B. USA300 biofilm dispersal from a glass surface. USA300 strain LAC with plasmid pALC2084 was inoculated into a once-through flow cell with a glass substratum and incubated for two days. AIP-I (˜50 nM) was added to the flow cell media and biofilm integrity was monitored for 20 hr. For each image depiction, a z series of images was obtained with CLSM and reconstructed with Volocity software, and each side of a grid square is 20 μm in the image reconstruction. (FIG. 1A) Wild-type LAC with pALC2084. (FIG. 1B) LAC ΔAgr:Tet mutant with pALC2084.
Biofilm Assays. […] For biofilm dispersal tests, AIP type I (AIP-I) was synthesized and quantified using an intein system (Malone et al., 2007), and biofilm dispersal tests were performed as previously described (Boles and Horswill, 2008). […] LAC biofilm integrity was monitored at 6 hr and 22 hr, and COMSTAT analysis was performed to quantify the biofilm properties.
USA300 has a functional biofilm dispersal pathway. […] Biofilm integrity was monitored using confocal laser scanning microscopy (CLSM), and as anticipated, the LAC biofilm appeared as a confluent layer ˜20 μm thick (FIG. 1A). […] In scanning the glass substratum, remaining live cells could not be detected, indicating the biomass completely dispersed from the surface.

In assay [2] the test system is USA300 strain LAC. The following applies: 48 hr titanium biofilm, AIP ~50 nM for 24 hr, effluent cells tested with rifampicin and levofloxacin.
Method: In parallel, biomass was detached (white triangles, dashed-line error bars) from the coupons with AIP-I addition and collected from flow cell effluents. The detached biomass was treated with identical rifampicin/levofloxacin concentrations and surviving CFU's determined.
Antibiotic susceptibility. […] To determine antibiotic resistance of dispersed biofilms, AIP was added (˜50 nM) to the media reservoir after 48 hr growth, and the biofilm effluent was collected on ice for 24 hr. Cell concentration was adjusted to the equivalent of one coupon of biomass, or ˜1×10^8 CFU. Cells were treated as described above with the exception that cells were pelleted by centrifugation at 13,000 RPM and then resuspended in 1 mL PBS before sonication.
To test antibiotic susceptibility of dispersed cells, LAC biofilms were grown for 48 hr on titanium, exposed to AIP (˜50 nM) for 24 hr, and detached cells were collected from the effluent.
Assay [3] relates to USA300 strain LAC biofilm. Put plainly: USA300 biofilm dispersal from a titanium surface (flow cell, CLSM). The following applies: AIP-I ~50 nM. Here is the method:
FIGS. 6A-B. USA300 biofilm dispersal from a titanium surface. Biofilms of LAC with plasmid pCM12 were grown for two days in the modified flow cell chamber (FIG. 2) that contains titanium as a substratum. AIP-I was added to the flow cell media at ˜50 nM final concentration, and biofilm integrity was monitored for another 20 hr. Each image depiction is a reconstruction of a z series of CLSM images, and each side of a grid square is 20 μm. (FIG. 6A) Wild-type LAC with pCM12. (FIG. 6B) LAC ΔAgr::Tet mutant with pCM12.
Biofilm Assays. For biofilms grown on glass, flow cell biofilm growth, confocal scanning laser microscopy (CSLM), and computer image analysis were performed as previously described (Boles and Horswill, 2008). To monitor biofilm growth, LAC was transformed with GFP-expressing plasmid pALC2084 (Bateman et al., 2001), and the growth medium was supplemented with 1 μg/ml Cam and 20 ng/ml anhydrotetracycline for plasmid maintenance and induction of GFP expression. […] For biofilm dispersal tests, AIP type I (AIP-I) was synthesized and quantified using an intein system (Malone et al., 2007), and biofilm dispersal tests were performed as previously described (Boles and Horswill, 2008). […] LAC biofilm integrity was monitored at 6 hr and 22 hr, and COMSTAT analysis was performed to quantify the biofilm properties. […]

Setting [4] is: LAC ΔAgr::Tet mutant (Agr inactivated), 20 hr.

Take “YSTCDFIM (thiolactone bridge; Synechocystis PCC6803) [AIP-I, made with an intein system]”: the “biofilm integrity after signal addition” value in assay [1] (setting [4]) is “no effect on the biofilm integrity”. Moreover, in assay [1] (wild-type LAC, 48 hr biofilm, 20 hr after addition), the “biofilm integrity (biomass) after signal addition” value is “complete loss of biomass”. For the same sequence, in assay [2], the “antibiotic susceptibility of cells after AIP-mediated dispersal” value is on record as “significantly more antibiotic susceptible”. Besides, the “biofilm response to AIP-I” value in assay [3] (setting [4]) is reported as “did not respond to AIP-I treatment”. In assay [3] (wild-type LAC, two day biofilm, 20 hr post addition), the “biofilm dispersal (biomass)” value is “complete dispersal of the biomass”.
